Reference: US10144742B2 (Millennium Pharmaceuticals, Inc., priority 2014, dated 2018)
Where two headings read alike, the source gives them in different places.

What was measured:
hNAMPT protein = hNAMPT protein (Homo sapiens (Human), UniProt P43490); experiment: NAMPT enzyme assay (TR-FRET/HTRF, BodiPY ligand, anti 6His-Tb); assay type: binding; settings: for IC50: read-out: IC50; for inhibition at 1 µM: read-out: Percent Inhibition
Procedure, shortened: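 TR-FRET binding assay in which His-tagged human NAMPT with anti-6His-Tb is displaced by compound from a BodiPY ligand, incubated 1 h at rt in the dark. Excitation was at 320 nm, with the 520/486 nm emission ratio read. IC50 was fitted from inhibition relative to DMSO controls.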

PC3 cells = experiment: PC3 growth inhibition (Cell-titer glo, 72 hours); assay type: cell-based; settings: Homo sapiens, PC-3, PC3 cells, 72 hours, Cell-titer glo, read-out: Percent Inhibition (PC3 growth inhibition); for inhibition at 1 µM: compound concentration 1 μM; for inhibition at 1.667 µM: compound concentration 1.667 μM
Procedure, shortened: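 PC3 cells in RPMI1640 seeded overnight at 37 °C, 5% CO2, then exposed to compound diluted in AIM serum-free medium for 72 h. Viability by CellTiter-Glo luminescence vs DMSO controls; single-concentration % remaining viability (1 μM or 1.667 μM), or GI50/LD50 from curves.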

[1] = NAMPT inhibition at compound concentration 1 μM
[2] = NAMPT inhibition, IC50 range class

Chain of hNAMPT protein (P43490 whole entry): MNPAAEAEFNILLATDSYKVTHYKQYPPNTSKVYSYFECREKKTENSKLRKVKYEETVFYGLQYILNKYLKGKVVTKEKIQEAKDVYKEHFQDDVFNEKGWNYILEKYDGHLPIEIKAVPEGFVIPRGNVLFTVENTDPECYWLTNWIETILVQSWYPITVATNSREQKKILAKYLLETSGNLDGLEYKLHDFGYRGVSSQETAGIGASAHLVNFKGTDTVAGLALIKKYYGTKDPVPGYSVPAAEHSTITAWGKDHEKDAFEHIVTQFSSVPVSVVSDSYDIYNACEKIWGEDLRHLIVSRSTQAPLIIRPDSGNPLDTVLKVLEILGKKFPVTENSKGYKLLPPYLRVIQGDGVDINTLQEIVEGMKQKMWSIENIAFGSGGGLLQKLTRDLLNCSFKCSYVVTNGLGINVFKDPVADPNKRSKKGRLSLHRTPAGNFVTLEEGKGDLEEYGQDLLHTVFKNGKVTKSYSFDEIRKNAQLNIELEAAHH

SMILES | IC50 (hNAMPT protein; NAMPT IC50 range class) [µM] | inhibition at 1 µM (hNAMPT protein; compound concentration 1 μM) [%] | inhibition at 1 µM (PC3 cells) [%] | inhibition at 1.667 µM (PC3 cells) [%] | inhibition at 1 µM (hNAMPT protein; [1]) [%] | IC50 (hNAMPT protein; [2]) [µM]
O=C(NCCCn1ccnc1)c1ccc2nc(N3CCC(O)CC3)c(-c3ccccc3)nc2c1 [Compound I-105, 2-(4-hydroxypiperidin-1-yl)-N-[3-(1H-imidazol-1-yl)propyl]-3-phenylquinoxaline-6-carboxamide] | < 0.1 | 92 | -7 |  |  | 
O=C(NCc1ccc2nccn2c1)c1ccc2nc(-c3ccc(F)cc3)c(-c3ccc(F)cc3)nc2c1 [Compound I-299, 2,3-bis(4-fluorophenyl)-N-(imidazo[1,2-a]pyridin-6-ylmethyl)quinoxaline-6-carboxamide] | 0.1 to 0.5 | 76 |  | 2 |  | 
Nc1ccc(CCCNC(=O)c2ccc3nc(-c4ccc(F)cc4)c(-c4ccc(F)cc4)nc3c2)cn1 [Compound I-419, N-[3-(6-aminopyridin-3-yl)propyl]-2,3-bis(4-fluorophenyl)quinoxaline-6-carboxamide] |  |  |  | 3 | 52 | 0.5 to 1
O=C(c1ccc2nc(-c3ccc(F)cc3)c(-c3ccc(F)cc3)nc2c1)N1CCc2nc[nH]c2C1 [Compound I-121, [2,3-bis(4-fluorophenyl)quinoxalin-6-yl](3,4,6,7-tetrahydro-5H-imidazo[4,5-c]pyridin-5-yl)methanone] | 2 to 10 | 12 | 99 |  |  | 
O=C(NCCCn1ccnc1)c1ccc2nc(-c3ccccc3)c(-c3cncnc3)nc2c1 [Compound I-41, N-[3-(1H-imidazol-1-yl)propyl]-2-phenyl-3-(pyrimidin-5-yl)quinoxaline-6-carboxamide] | 2 to 10 | 17 | 5 |  |  | 
O=C(c1ccc2nc(-c3ccc(F)cc3)c(-c3ccc(F)cc3)nc2c1)N1CCc2[nH]ccc2C1 [Compound I-75, [2,3-bis(4-fluorophenyl)quinoxalin-6-yl](1,4,6,7-tetrahydro-5H-pyrrolo[3,2-c]pyridin-5-yl)methanone] | 2 to 10 | 16 | 96 |  |  | 
Cn1ccnc1CCCNC(=O)c1ccc2nc(-c3ccc(F)cc3)c(-c3ccc(F)cc3)nc2c1 [Compound I-234, 2,3-bis(4-fluorophenyl)-N-[3-(1-methyl-1H-imidazol-2-yl)propyl]quinoxaline-6-carboxamide] | < 0.1 | 100 | 41 |  |  | 
O=C(NCCc1cnccn1)c1ccc2nc(-c3ccc(F)cc3)c(-c3ccc(F)cc3)nc2c1 [Compound I-184, 2,3-bis(4-fluorophenyl)-N-[2-(pyrazin-2-yl)ethyl]quinoxaline-6-carboxamide] | 1 to 2 | 39 | 101 |  |  | 
CC(=O)Nc1cccc(-c2nc3cc(C(=O)NCCCn4ccnc4)ccc3nc2-c2ccccc2)c1 [Compound I-248, 3-(3-acetamidophenyl)-N-[3-(1H-imidazol-1-yl)propyl]-2-phenylquinoxaline-6-carboxamide] | 2 to 10 | 29 | 2 |  |  | 
O=C(NCCCc1ncc[nH]1)c1ccc2nc(OCCc3ccccc3)c(-c3ccc(F)cc3)nc2c1 [Compound I-420, 3-(4-fluorophenyl)-N-[3-(1H-imidazol-2-yl)propyl]-2-(2-phenylethoxy)quinoxaline-6-carboxamide] |  |  |  | 2 | 97 | < 0.1
O=C(NCCCc1ncc[nH]1)c1ccc2nc(-c3ccc(F)cc3)c(-c3cc(OC(F)(F)F)ccc3Cl)nc2c1 [Compound I-432, 3-[2-chloro-5-(trifluoromethoxy)phenyl]-2-(4-fluorophenyl)-N-[3-(1H-imidazol-2-yl)propyl]quinoxaline-6-carboxamide] |  |  |  | 2 | 79 | 0.1 to 0.5
Cc1ccc(F)c(-c2nc3cc(C(=O)NCCCc4ncc[nH]4)ccc3nc2-c2ccc(F)cc2)c1 [Compound I-507, 3-(2-fluoro-5-methylphenyl)-2-(4-fluorophenyl)-N-[3-(1H-imidazol-2-yl)propyl]quinoxaline-6-carboxamide] |  |  |  | 2 | 97 | < 0.1
COc1cccc(-c2nc3cc(C(=O)NCCCc4cccnc4)ccc3nc2N2CCCCC2)c1 [Compound I-197, 3-(3-methoxyphenyl)-2-(piperidin-1-yl)-N-[3-(pyridin-3-yl)propyl]quinoxaline-6-carboxamide] | < 0.1 | > 99 |  | 2 |  | 
CC(C)(C)OC(=O)N1CCN(C2CCN(c3nc4ccc(C(=O)NCCCn5ccnc5)cc4nc3-c3ccccc3)CC2)CC1 [Compound I-66, tert-butyl 4-[1-(6-{[3-(1H-imidazol-1-yl)propyl]carbamoyl}-3-phenylquinoxalin-2-yl)piperidin-4-yl]piperazine-1-carboxylate] | < 0.1 | 102 | -1 |  |  | 
O=C(NCCCc1ncc[nH]1)c1ccc2nc(OCc3ccoc3)c(-c3ccc(F)cc3)nc2c1 [Compound I-351, 3-(4-fluorophenyl)-2-(3-furylmethoxy)-N-[3-(1H-imidazol-2-yl)propyl]quinoxaline-6-carboxamide] | < 0.1 | 96 |  | 3 |  | 
O=C(NCCCc1ncc[nH]1)c1ccc2nc(-c3ccc(F)cc3)c(-c3cc(F)c(F)cc3F)nc2c1 [Compound I-337, 2-(4-fluorophenyl)-N-[3-(1H-imidazol-2-yl)propyl]-3-(2,4,5-trifluorophenyl)quinoxaline-6-carboxamide] | 0.1 to 0.5 | 88 |  | 3 |  | 
Cn1cc2c(n1)CN(C(=O)c1ccc3nc(-c4ccc(F)cc4)c(-c4ccc(F)cc4)nc3c1)CC2 [Compound I-22, [2,3-bis(4-fluorophenyl)quinoxalin-6-yl](2-methyl-2,4,5,7-tetrahydro-6H-pyrazolo[3,4-c]pyridin-6-yl)methanone] | 1 to 2 | 41 | 96 |  |  | 
Cc1ccsc1-c1nc2cc(C(=O)NCCCc3ncc[nH]3)ccc2nc1-c1ccc(F)cc1 [Compound I-342, 2-(4-fluorophenyl)-N-[3-(1H-imidazol-2-yl)propyl]-3-(3-methyl-2-thienyl)quinoxaline-6-carboxamide] | < 0.1 | 89 |  | 3 |  | 
Cn1ccc(-c2nc3ccc(C(=O)NCCCn4ccnc4)cc3nc2-c2ccccc2)n1 [Compound I-203, N-[3-(1H-imidazol-1-yl)propyl]-2-(1-methyl-1H-pyrazol-3-yl)-3-phenylquinoxaline-6-carboxamide] | 1 to 2 | 37 | -8 |  |  | 
O=C(NCCCc1cn[nH]c1)c1ccc2nc(N3CCCCC3)c(-c3ccc(F)cc3)nc2c1 [Compound I-94, 3-(4-fluorophenyl)-2-(piperidin-1-yl)-N-[3-(1H-pyrazol-4-yl)propyl]quinoxaline-6-carboxamide] | < 0.1 | 92 |  | 34 |  | 
O=C(NCCCc1ncc[nH]1)c1ccc2nc(N3CCCC3)c(-c3ccc(F)cc3)nc2c1 [Compound I-465, 3-(4-fluorophenyl)-N-[3-(1H-imidazol-2-yl)propyl]-2-(pyrrolidin-1-yl)quinoxaline-6-carboxamide] |  |  |  | 2 | 98 | < 0.1
